# Measured values taken from ChEMBL document CHEMBL1629577, “Activity of T-705 in a hamster model of yellow fever virus infection in comparison with that of a chemically related compound, T-1106” (Antimicrob Agents Chemother, 2009).
# Active and inactive are the calls of the source. The rule behind the calls is not given here.
# Key:
# Yellow fever virus [1] = test: Antiviral activity against Yellow fever virus 17D infected in African green monkey Vero cells assessed as time required for inhibition of viral replication at 6400 uM up to 12 hrs post-viral infection; type: functional, cell-based
# Yellow fever virus [2] = test: Antiviral activity against 10^2 CCID50 Yellow fever virus Jimenez infected in syrian golden hamster assessed as serum AST level at 50 mg/kg/day, po administered twice daily for 8 days started 4 hrs prior to viral infection; type: functional, organism-based
# Yellow fever virus [3] = test: Antiviral activity against 10^2 CCID50 Yellow fever virus Jimenez infected in syrian golden hamster assessed as serum ALT level at 200 mg/kg/day, po administered twice daily for 8 days started 4 hrs prior to viral infection; type: functional
# Yellow fever virus [4] = test: Antiviral activity against 10^2 CCID50 Yellow fever virus Jimenez infected in syrian golden hamster assessed as serum ALT level in non surviving animals at 400 mg/kg/day, po administered 4 days post viral infection; type: functional
# Yellow fever virus [5] = test: Antiviral activity against 10^2 CCID50 Yellow fever virus Jimenez infected in syrian golden hamster assessed as serum ALT level at 400 mg/kg/day, po administered daily for days started 5 day post viral challenge; type: functional
# Yellow fever virus [6] = test: Antiviral activity against 10^2 CCID50 Yellow fever virus Jimenez infected in syrian golden hamster assessed as serum ALT level at 400 mg/kg/day, po administered daily for days started 1 day post viral challenge; type: functional
# Yellow fever virus [7] = test: Antiviral activity against 10^2 CCID50 Yellow fever virus Jimenez infected in syrian golden hamster assessed as serum AST level at 400 mg/kg/day, po administered daily for days started 2 day post viral challenge; type: functional
# Yellow fever virus [8] = test: Antiviral activity against 10^2 CCID50 Yellow fever virus Jimenez infected in syrian golden hamster assessed as mean day of death […] at 400 mg/kg/day, po administered twice daily for 8 days started 2 day post infection; type: functional
# Yellow fever virus [9] = test: Antiviral activity against 10^2 CCID50 Yellow fever virus Jimenez infected in syrian golden hamster assessed as mean day of death […] at 400 mg/kg/day, po administered twice daily for 8 days started 3 day post infection; type: functional
# Yellow fever virus [10] = test: Antiviral activity against 10^2 CCID50 Yellow fever virus Jimenez infected in syrian golden hamster assessed as serum ALT level at 400 mg/kg/day, po administered twice daily for 8 days started 4 hrs prior to viral infection; type: functional
# Yellow fever virus [11] = test: Antiviral activity against 10^2 CCID50 Yellow fever virus Jimenez infected in syrian golden hamster assessed as serum AST level at 10 mg/kg/day, po administered twice daily for 8 days started 4 hrs prior to viral infection; type: functional, organism-based
# Yellow fever virus [12] = test: Antiviral activity against 10^2 CCID50 Yellow fever virus Jimenez infected in syrian golden hamster assessed as serum AST level at 400 mg/kg/day, po administered twice daily for 8 days started 4 hrs prior to viral infection; type: functional, organism-based
# Yellow fever virus [13] = test: Antiviral activity against Yellow fever virus 17D infected in African green monkey Vero cells assessed as inhibition of virus induced cytopathic effect by luciferase reporter gene assay; type: functional, cell-based
# Yellow fever virus [14] = test: Antiviral activity against 10^2 CCID50 Yellow fever virus Jimenez infected in syrian golden hamster assessed as serum AST level in non surviving animals at 400 mg/kg/day, po administered 5 days post viral infection; type: functional
# Yellow fever virus [15] = test: Antiviral activity against 10^2 CCID50 Yellow fever virus Jimenez infected in syrian golden hamster assessed as reduction in viral titer in liver at 200 mg/kg/day administered twice daily for 8 days started 6 days post infection by quantitative RT-PCR analysis; type: functional, organism-based
# Yellow fever virus [16] = test: Antiviral activity against 10^2 CCID50 Yellow fever virus Jimenez infected in syrian golden hamster assessed as serum AST level in surviving animals at 400 mg/kg/day, po administered 5 days post viral infection; type: functional
# Yellow fever virus [17] = test: Antiviral activity against 10^2 CCID50 Yellow fever virus Jimenez infected in syrian golden hamster assessed as serum AST level at 400 mg/kg/day, po administered daily for days started 1 day post viral challenge; type: functional
# Yellow fever virus [18] = test: Antiviral activity against 10^2 CCID50 Yellow fever virus Jimenez infected in syrian golden hamster assessed as mean day of death […] at 400 mg/kg/day, po administered twice daily for 8 days started 5 day post infection; type: functional
# Yellow fever virus [19] = test: Antiviral activity against 10^2 CCID50 Yellow fever virus Jimenez infected in syrian golden hamster assessed as serum AST level in surviving animals at 400 mg/kg/day, po administered 4 days post viral infection; type: functional
# Yellow fever virus [20] = test: Antiviral activity against 10^2 CCID50 Yellow fever virus Jimenez infected in syrian golden hamster assessed as mean day of death […] at 200 mg/kg/day, po administered twice daily for 8 days started 4 hrs prior to viral infection relative to control; type: functional
# Yellow fever virus [21] = test: Antiviral activity against Yellow fever virus 17D infected in African green monkey Vero cells assessed as inhibition of virus induced cytopathic effect […] by NR dye uptake assay; type: functional, cell-based
# Yellow fever virus [22] = test: Antiviral activity against 10^2 CCID50 Yellow fever virus Jimenez infected in syrian golden hamster assessed as serum AST level in non surviving animals at 400 mg/kg/day, po administered 4 days post viral infection; type: functional
# Yellow fever virus [23] = test: Antiviral activity against 10^2 CCID50 Yellow fever virus Jimenez infected in syrian golden hamster assessed as serum ALT level at 400 mg/kg/day, po administered daily for days started 2 day post viral challenge; type: functional
# Yellow fever virus [24] = test: Antiviral activity against 10^2 CCID50 Yellow fever virus Jimenez infected in syrian golden hamster assessed as mean day of death of mice at 400 mg/kg/day, po administered twice daily for 8 days started 4 day post infection; type: functional
# Yellow fever virus [25] = test: Antiviral activity against 10^2 CCID50 Yellow fever virus Jimenez infected in syrian golden hamster assessed as serum AST level at 200 mg/kg/day, po administered twice daily for 8 days started 4 hrs prior to viral infection; type: functional, organism-based
# Yellow fever virus [26] = test: Antiviral activity 10^2 CCID50 Yellow fever virus Jimenez infected in syrian golden hamster assessed as serum AST level at 100 mg/kg/day, po administered twice daily for 8 days started 4 hrs prior to viral infection; type: functional, organism-based
# Yellow fever virus [27] = test: Antiviral activity against 10^2 CCID50 Yellow fever virus Jimenez infected in syrian golden hamster assessed as serum AST level at 400 mg/kg/day, po administered daily for days started 5 day post viral challenge; type: functional
# Yellow fever virus [28] = test: Antiviral activity against 10^2 CCID50 Yellow fever virus Jimenez infected in syrian golden hamster assessed as serum AST level at 400 mg/kg/day, po administered daily for days started 3 day post viral challenge; type: functional
# Yellow fever virus [29] = test: Antiviral activity against 10^2 CCID50 Yellow fever virus Jimenez infected in syrian golden hamster assessed as serum ALT level at 400 mg/kg/day, po administered daily for days started 4 day post viral challenge; type: functional
# Yellow fever virus [30] = test: Antiviral activity against 10^2 CCID50 Yellow fever virus Jimenez infected in syrian golden hamster assessed as serum survival of animal at 100 mg/kg/day, po administered twice daily for 8 days started 4 hrs prior to viral infection; type: functional, organism-based
# Yellow fever virus [31] = test: Antiviral activity against 10^2 CCID50 Yellow fever virus Jimenez infected in syrian golden hamster assessed as serum survival of animal at 200 mg/kg/day, po administered twice daily for 8 days started 4 hrs prior to viral infection; type: functional, organism-based
# Yellow fever virus [32] = test: Antiviral activity against 10^2 CCID50 Yellow fever virus Jimenez infected in syrian golden hamster assessed as mean day of death […] at 400 mg/kg/day, po administered twice daily for 8 days started 1 day post infection; type: functional
smiles,measurement,setting,value
NC(=O)c1nc(F)cnc1O [FAVIPIRAVIR],Activity,Yellow fever virus [1],Active
same,Activity,Yellow fever virus [2],inactive
same,Activity,Yellow fever virus [3],128 IU/L
same,Activity,Yellow fever virus [4],231 IU/L
same,Activity,Yellow fever virus [5],157 IU/L
same,Activity,Yellow fever virus [6],80 IU/L
same,Activity,Yellow fever virus [7],75 IU/L
same,Time,Yellow fever virus [8],>21 days
same,Time,Yellow fever virus [9],7 days
same,Activity,Yellow fever virus [10],63 IU/L
same,Activity,Yellow fever virus [11],inactive
same,Activity,Yellow fever virus [12],inactive
same,EC50,Yellow fever virus [13],270 µM
same,Activity,Yellow fever virus [14],285 IU/L
same,Activity,Yellow fever virus [15],Active
same,Activity,Yellow fever virus [16],153 IU/L
same,Activity,Yellow fever virus [17],52 IU/L
same,Time,Yellow fever virus [18],6.8 days
same,Activity,Yellow fever virus [19],132 IU/L
same,Time,Yellow fever virus [20],>21 days
same,EC50,Yellow fever virus [21],270 µM
same,Activity,Yellow fever virus [22],189 IU/L
same,Activity,Yellow fever virus [23],84 IU/L
same,Time,Yellow fever virus [24],6.5 days
same,Activity,Yellow fever virus [25],inactive
same,Activity,Yellow fever virus [26],inactive
same,Activity,Yellow fever virus [27],212 IU/L
same,Activity,Yellow fever virus [28],137 IU/L
same,Activity,Yellow fever virus [29],115 IU/L
same,Activity,Yellow fever virus [30],inactive
same,Activity,Yellow fever virus [31],Active
same,Time,Yellow fever virus [32],>21 days
